Tested on: MCF-7 breast cancer cells
Assay: Microarray gene expression analysis (Agilent whole human genome 4 x 44K; compound vs DMSO, LIMMA log2 fold change)
Format: cell-based
Conditions: cell cycle genes

## Cn1ncc2c(N3CCOCC3)nc(-c3cccc(O)c3)nc21 [ETP-45658]
Gene 994
  CDC25B log2FC: -0.243
Gene 995
  CDC25C log2FC: 1.417
Gene 997
  CDC34 log2FC: 0.349
Gene 998
  CDC42 log2FC: 0.143
Gene 1017
  CDK2 log2FC: -0.519
Gene 1018
  CDK3 log2FC: -0.108
Gene 1019
  CDK4 log2FC: 0.113
Gene 1020
  CDK5 log2FC: -0.089
Gene 1022
  CDK7 log2FC: 0.920
Gene 1026
  CDKN1A log2FC: -1.401
Gene 1027
  CDKN1B log2FC: 1.129
Gene 1028
  CDKN1C log2FC: 0.689
Gene 1029
  CDKN2A log2FC: 0.240
Gene 1032
  CDKN2D log2FC: 0.891
Gene 1033
  CDKN3 log2FC: 0.104
Gene 1058
  CENPA log2FC: 0.094
Gene 1062
  CENPE log2FC: 1.101
Gene 1063
  CENPF log2FC: 1.562
Gene 1069
  CETN2 log2FC: 0.059
Gene 1107
  CHD3 log2FC: -0.048
Gene 1111
  CHEK1 log2FC: 0.461
Gene 1163
  CKS1B log2FC: 0.101
Gene 1164
  CKS2 log2FC: -0.752
Gene 1213
  CLTC log2FC: 0.237
Gene 1263
  PLK3 log2FC: -1.808
Gene 1386
  ATF2 log2FC: 0.857
Gene 1389
  CREBL2 log2FC: 0.823
Gene 1432
  MAPK14 log2FC: -0.291
Gene 1452
  CSNK1A1 log2FC: 0.166
Gene 1453
  CSNK1D log2FC: -0.308
Gene 1454
  CSNK1E log2FC: -0.533
Gene 1457
  CSNK2A1 log2FC: -0.545
Gene 1487
  CTBP1 log2FC: -0.371
Gene 1490
  CTGF log2FC: -0.597
Gene 1540
  CYLD log2FC: 0.499
Gene 1594
  CYP27B1 log2FC: -0.054
Gene 1613
  DAPK3 log2FC: -0.132
Gene 1642
  DDB1 log2FC: 0.227
Gene 1649
  DDIT3 log2FC: 2.364
Gene 1654
  DDX3X log2FC: -1.156
Gene 1718
  DHCR24 log2FC: -0.643
Gene 1719
  DHFR log2FC: 0.876
Gene 1739
  DLG1 log2FC: 0.053
Gene 1761
  DMRT1 log2FC: 0.148
Gene 1781
  DYNC1I2 log2FC: 0.828
Gene 1785
  DNM2 log2FC: -0.047
Gene 1814
  DRD3 log2FC: -0.082
Gene 1843
  DUSP1 log2FC: -0.931
Gene 1845
  DUSP3 log2FC: 0.560
Gene 1859
  DYRK1A log2FC: 0.448
Gene 1869
  E2F1 log2FC: -0.356
Gene 1870
  E2F2 log2FC: -0.581
Gene 1871
  E2F3 log2FC: -0.373
Gene 1874
  E2F4 log2FC: -0.621
Gene 1875
  E2F5 log2FC: 0.382
Gene 1876
  E2F6 log2FC: -0.321
Gene 1877
  E4F1 log2FC: 0.414
Gene 1894
  ECT2 log2FC: 1.058
Gene 1908
  EDN3 log2FC: -0.056
Gene 1950
  EGF log2FC: -0.024
Gene 1956
  EGFR log2FC: 0.311
Gene 1978
  EIF4EBP1 log2FC: -0.081
Gene 1982
  EIF4G2 log2FC: 0.237
Gene 2010
  EMD log2FC: -0.178
Gene 2029
  ENSA log2FC: -0.068
Gene 2059
  EPS8 log2FC: 0.516
Gene 2068
  ERCC2 log2FC: -0.566
Gene 2071
  ERCC3 log2FC: -0.084
Gene 2072
  ERCC4 log2FC: 0.186
Gene 2077
  ERF log2FC: 0.135
Gene 2079
  ERH log2FC: -0.238
Gene 2081
  ERN1 log2FC: -0.168
Gene 2113
  ETS1 log2FC: -0.590
Gene 2146
  EZH2 log2FC: 0.722
Gene 2189
  FANCG log2FC: -0.077
Gene 2237
  FEN1 log2FC: -0.980
Gene 2241
  FER log2FC: 0.332
Gene 2247
  FGF2 log2FC: 0.202
Gene 2253
  FGF8 log2FC: -0.131
Gene 2255
  FGF10 log2FC: 0.033
Gene 2260
  FGFR1 log2FC: -0.387
Gene 2261
  FGFR3 log2FC: -0.382
Gene 2263
  FGFR2 log2FC: 1.543
Gene 2273
  FHL1 log2FC: 0.046
Gene 2296
  FOXC1 log2FC: -0.876
Gene 2305
  FOXM1 log2FC: -0.360
Gene 2316
  FLNA log2FC: -0.229
Gene 2342
  FNTB log2FC: -0.574
Gene 2619
  GAS1 log2FC: 0.711
Gene 2620
  GAS2 log2FC: 0.183
Gene 2621
  GAS6 log2FC: -0.052
Gene 2672
  GFI1 log2FC: 0.062
Gene 2770
  GNAI1 log2FC: 1.186
Gene 2771
  GNAI2 log2FC: -0.343
Gene 2773
  GNAI3 log2FC: 0.669
Gene 2810
  SFN log2FC: -1.182
Gene 2827
  GPR3 log2FC: -0.277
Gene 2873
  GPS1 log2FC: -0.145
Gene 2874
  GPS2 log2FC: -0.087
Gene 2932
  GSK3B log2FC: -0.607
Gene 2935
  GSPT1 log2FC: -0.172
Gene 2956
  MSH6 log2FC: 0.235
Gene 2965
  GTF2H1 log2FC: 0.573
Gene 3014
  H2AFX log2FC: -1.128
Gene 3054
  HCFC1 log2FC: -0.769
Gene 3065
  HDAC1 log2FC: -0.487
Gene 3066
  HDAC2 log2FC: 0.164
Gene 3082
  HGF log2FC: -0.369
Gene 3087
  HHEX log2FC: -0.222
Gene 3169
  FOXA1 log2FC: 0.031
Gene 3209
  HOXA13 log2FC: 0.081
Gene 3265
  HRAS log2FC: -0.664
Gene 3275
  PRMT2 log2FC: 0.361
Gene 3280
  HES1 log2FC: -1.195
Gene 3297
  HSF1 log2FC: 0.106
Gene 3306
  HSPA2 log2FC: -1.351
Gene 3320
  HSP90AA1 log2FC: 1.066
Gene 3398
  ID2 log2FC: 1.025
Gene 3399
  ID3 log2FC: -0.237
Gene 3458
  IFNG log2FC: -0.055
Gene 3479
  IGF1 log2FC: 0.046
Gene 3480
  IGF1R log2FC: 0.075
Gene 3481
  IGF2 log2FC: 0.014
Gene 3552
  IL1A log2FC: -0.044
Gene 3553
  IL1B log2FC: -0.057
Gene 3576
  IL8 log2FC: -1.203
Gene 3593
  IL12B log2FC: -0.025
Gene 3609
  ILF3 log2FC: -0.460
Gene 3611
  ILK log2FC: -0.066
Gene 3619
  INCENP log2FC: -0.174
Gene 3622
  ING2 log2FC: 0.424
Gene 3623
  INHA log2FC: -0.101
Gene 3642
  INSM1 log2FC: -0.209
Gene 3643
  INSR log2FC: 0.664
Gene 3664
  IRF6 log2FC: 0.370
Gene 3688
  ITGB1 log2FC: 0.722
Gene 3725
  JUN log2FC: -0.912
Gene 3726
  JUNB log2FC: -0.596
Gene 3832
  KIF11 log2FC: 0.922
Gene 3875
  KRT18 log2FC: -0.481
Gene 3925
  STMN1 log2FC: 0.176
Gene 3976
  LIF log2FC: -1.818
Gene 3978
  LIG1 log2FC: -0.097
Gene 3980
  LIG3 log2FC: -0.509
Gene 3993
  LLGL2 log2FC: -0.345
Gene 4041
  LRP5 log2FC: -0.510
Gene 4085
  MAD2L1 log2FC: 0.081
Gene 4088
  SMAD3 log2FC: 0.254
Gene 4172
  MCM3 log2FC: -0.047
Gene 4174
  MCM5 log2FC: -0.158
Gene 4176
  MCM7 log2FC: 0.104
Gene 4193
  MDM2 log2FC: -0.059
Gene 4194
  MDM4 log2FC: 0.064
Gene 4218
  RAB8A log2FC: -0.531
Gene 4282
  MIF log2FC: 0.242
Gene 4288
  MKI67 log2FC: 0.040

Reference: PMC4303209, “A novel phosphatidylinositol 3-kinase (PI3K) inhibitor directs a potent FOXO-dependent, p53-independent cell cycle arrest phenotype characterized by the differential induction of a subset of FOXO-regulated genes” (Breast Cancer Research : BCR, 2014)
